Results as given in patent publication US4452986A, “Imidazolyl-substituted benzofurans” (The Upjohn Company, priority 1982, dated 1984).
Counter-ions that a name gives are not always drawn.

Target: T1, TXA2 synthetase (human platelet microsomes) (Homo sapiens, UniProt P24557)
T1 construct: human platelet microsomes (HPM); from tissue; host or cells: human platelets (microsomes)
T1 sequence (P24557 1-533): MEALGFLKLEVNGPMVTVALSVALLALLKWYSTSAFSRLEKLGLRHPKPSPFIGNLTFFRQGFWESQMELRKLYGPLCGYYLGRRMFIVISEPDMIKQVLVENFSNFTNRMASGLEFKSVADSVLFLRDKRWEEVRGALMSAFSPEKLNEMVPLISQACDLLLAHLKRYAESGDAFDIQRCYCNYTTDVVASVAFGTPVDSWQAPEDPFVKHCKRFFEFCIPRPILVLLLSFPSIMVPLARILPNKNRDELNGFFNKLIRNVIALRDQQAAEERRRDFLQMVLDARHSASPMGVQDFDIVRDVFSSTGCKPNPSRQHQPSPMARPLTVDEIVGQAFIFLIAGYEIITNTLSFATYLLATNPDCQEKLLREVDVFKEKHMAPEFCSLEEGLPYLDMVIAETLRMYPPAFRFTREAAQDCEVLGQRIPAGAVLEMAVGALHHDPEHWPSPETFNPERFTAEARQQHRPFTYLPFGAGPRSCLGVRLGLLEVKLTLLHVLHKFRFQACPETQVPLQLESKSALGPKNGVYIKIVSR
Assay: TXA2 inhibition test: TXA2 generated from PGH2 with human platelet microsomes, response of superfused rabbit aortic strips
Type: biochemical
Settings: human platelet microsomes + PGH2, rabbit aorta bioassay
Method: The compounds of the present invention were tested for TXA2 inhibition as follows:
Rabbit aortic strips were superfused in series with Krebs solution. Thromboxane A2 (TXA2) was generated by mixing prostaglandin H2 (PGH2) with human platelet microsomes (HPM).
Potential inhibitors were tested by comparing the response of the rabbit aorta to the amount of TXA2 produced by mixing PGH2 and HPM without the test compound in the reaction medium and then the amount of TXA2 produced when the test compound was added to the HPM 5 minutes before the HPM was mixed with PGH2. […] For a discussion of TXA2 synthetase inhibition testing see, e.g., R. Gorman, supra.

`O=C(O)c1cc2cc(Cn3ccnc3)ccc2o1` [Example 3, 5-N-Imidazolylmethyl-benzofuran-2-carboxylic Acid, Sodium Salt] was tested, and the “effectiveness in inhibiting TXA2 formation (rank among tested compounds)” value was “most effective”.
